Assay results published in PubChem BioAssay AID330 (DTP/NCI, 2004).
Values joined by “and” are separate entries in the source; they are usually repeats but may differ in a detail not shown here. Equal values may be shown once. Inconclusive results and toxic doses are left out.

Test system: P388 leukemia ip, CD2F1 mice, survival T/C
Test: NCI In Vivo Anticancer Drug Screen. Data for tumor model P388 Leukemia (intraperitoneal) in CD2F1 (CDF1) mice
Conditions: endpoint: median survival time, higher = longer survival
How it was run: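 Mice carrying the transplanted tumor received test compound or vehicle. Survival was recorded in each group, and the value is the treated-group measurement divided by that of the vehicle-treated control group.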

[1] = dose: 50.0 mg/kg/injection, schedule: Q01DX009 (ip), vehicle: saline with Tween-80
[2] = dose: 100.0 mg/kg/injection, schedule: Q01DX009 (ip), vehicle: saline with Tween-80
[3] = dose: 200.0 mg/kg/injection, schedule: Q01DX009 (ip), vehicle: saline with Tween-80
[4] = dose: 50.0 mg/kg/injection, schedule: Q01DX005 (ip), vehicle: saline with Tween-80
[5] = dose: 100.0 mg/kg/injection, schedule: Q04DX003 (ip), vehicle: saline
[6] = dose: 200.0 mg/kg/injection, schedule: Q04DX003 (ip), vehicle: saline

For `COc1c2ccoc2nc2c(OCC=C(C)C)c3c(cc12)OCO3`, the T/C (dose: 5.0 mg/kg/injection, schedule: Q01DX005 (ip), vehicle: Klucel (hydroxypropylcellulose) (HPC)) was 101 % of control, the T/C (dose: 10.0 mg/kg/injection, schedule: Q01DX005 (ip), vehicle: Klucel (hydroxypropylcellulose) (HPC)) was 100 % of control and the T/C (dose: 20.0 mg/kg/injection, schedule: Q01DX005 (ip), vehicle: Klucel (hydroxypropylcellulose) (HPC)) was 100 % of control. The T/C (dose: 40.0 mg/kg/injection, schedule: Q01DX005 (ip), vehicle: Klucel (hydroxypropylcellulose) (HPC)) was 101 % of control and the T/C (dose: 80.0 mg/kg/injection, schedule: Q01DX005 (ip), vehicle: Klucel (hydroxypropylcellulose) (HPC)) was 94 % of control.
For `COc1ccc(C(=O)OC2(C)CC(C)(C)N=N2)cc1` (stereo unspecified), the T/C (dose: 12.5 mg/kg/injection, schedule: Q01DX009 (ip), vehicle: other) was 105 % of control, the T/C (dose: 25.0 mg/kg/injection, schedule: Q01DX009 (ip), vehicle: other) was 108 % of control and the T/C (dose: 50.0 mg/kg/injection, schedule: Q01DX009 (ip), vehicle: other) was 108 % of control. The T/C (dose: 100.0 mg/kg/injection, schedule: Q01DX009 (ip), vehicle: other) was 108 % of control and the T/C (dose: 200.0 mg/kg/injection, schedule: Q01DX009 (ip), vehicle: other) was 108 % of control.
With `CCCc1c(C)nc2scc(-c3ccc(Cl)cc3)n2c1=O` the T/C [1] was 96 % of control, the T/C [2] was 98 % of control and the T/C [3] was 96 % of control.
For `COc1ccc2c(c1)C13CCCCC1C(C2)N(C)CC3` (stereo unspecified), the T/C (dose: 12.5 mg/kg/injection, schedule: Q01DX005 (ip), vehicle: saline with Tween-80) was 94 % of control, the T/C (dose: 25.0 mg/kg/injection, schedule: Q01DX005 (ip), vehicle: saline with Tween-80) was 100 % of control and the T/C [4] was 100 % of control. For the same molecule, the T/C (dose: 50.0 mg/kg/injection, schedule: Q01DX005 (ip), vehicle: saline) was 99 % of control.
For `Cc1c2ccccc2c(CSC(=N)N)c2ccccc12`, the T/C (dose: 0.44 mg/kg/injection, schedule: Q01DX009 (ip), vehicle: saline) was 110 % of control, the T/C (dose: 0.66 mg/kg/injection, schedule: Q01DX009 (ip), vehicle: saline) was 110 % of control and the T/C (dose: 1.0 mg/kg/injection, schedule: Q01DX009 (ip), vehicle: saline) was 110 % of control. For the same molecule, the T/C (dose: 1.47 mg/kg/injection, schedule: Q01DX009 (ip), vehicle: saline) was 160 % of control, the T/C (dose: 1.5 mg/kg/injection, schedule: Q01DX009 (ip), vehicle: saline) was 105 % of control and 120 % of control and the T/C (dose: 2.2 mg/kg/injection, schedule: Q01DX009 (ip), vehicle: saline) was 160 % of control. For the same molecule, the T/C (dose: 3.3 mg/kg/injection, schedule: Q01DX009 (ip), vehicle: saline) was 165 % of control and the T/C (dose: 5.0 mg/kg/injection, schedule: Q01DX009 (ip), vehicle: saline) was 150 % of control and 185 % of control.
For `COc1ccc(N=C(c2ccccc2)C2C(=O)c3ccccc3C2=O)cc1`, the T/C [4] was 103 % of control, the T/C (dose: 100.0 mg/kg/injection, schedule: Q01DX005 (ip), vehicle: saline with Tween-80) was 108 % of control and the T/C (dose: 200.0 mg/kg/injection, schedule: Q01DX005 (ip), vehicle: saline with Tween-80) was 112 % of control.
`CCOC(=O)C1=C(C)NC(C)=C(C(=O)OCC)C1c1ccccc1Cl` was tested, and the T/C (dose: 12.5 mg/kg/injection, schedule: Q01DX009 (ip), vehicle: saline) was 100 % of control, the T/C (dose: 25.0 mg/kg/injection, schedule: Q01DX009 (ip), vehicle: saline) was 110 % of control and the T/C (dose: 50.0 mg/kg/injection, schedule: Q01DX009 (ip), vehicle: saline) was 120 % of control.
In the case of `Brc1ccc(N=Cc2cccs2)cc1`, the T/C [5] is reported as 100 % of control, the T/C [6] is reported as 99 % of control and the T/C (dose: 400.0 mg/kg/injection, schedule: Q04DX003 (ip), vehicle: saline) is reported as 98 % of control.
With `COC(=O)/C=C1\C=CC=CN1C` the T/C [1] was 105 % of control, the T/C [2] was 106 % of control and the T/C [3] was 106 % of control.
For `C[N+](C)(Cn1ncc2ccc([N+](=O)[O-])cc21)Cn1ncc2ccc([N+](=O)[O-])cc21`, the T/C (dose: 12.5 mg/kg/injection, schedule: Q04DX003 (ip), vehicle: saline with Tween-80) was 100 % of control, the T/C (dose: 25.0 mg/kg/injection, schedule: Q04DX003 (ip), vehicle: saline with Tween-80) was 97 % of control and the T/C (dose: 50.0 mg/kg/injection, schedule: Q04DX003 (ip), vehicle: saline with Tween-80) was 92 % of control. For the same molecule, the T/C (dose: 100.0 mg/kg/injection, schedule: Q04DX003 (ip), vehicle: saline with Tween-80) was 96 % of control.
`O=C1NCCN1c1cccc([N+](=O)[O-])c1` was tested, and the T/C (dose: 12.5 mg/kg/injection, schedule: Q01DX009 (ip), vehicle: saline sonified) was 90 % of control, the T/C (dose: 25.0 mg/kg/injection, schedule: Q01DX009 (ip), vehicle: saline sonified) was 100 % of control and the T/C (dose: 50.0 mg/kg/injection, schedule: Q01DX009 (ip), vehicle: saline sonified) was 90 % of control.
With `Cc1cc(Cl)ccc1N1C(=O)[N+](C)(C)N=C1[O-]` the T/C [5] was 103 % of control and the T/C [6] was 103 % of control.
